Common to all, as to format: biochemical
The target in experiment [1] is T1, CYP3A4 (Homo sapiens, UniProt P08684). The experiment can be described thus: Determination of IC50 against CYP3A4 by measurement of inhibition of testosterone metabolism (human liver microsomes, 6-β-OH-testosterone by LC-MS/MS). On the set-up: 0.1 mg/mL human liver microsomes. To be noted: read-out: IC50 (Testo.). In short, it runs like this:
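Human liver microsomes (0.1 mg/mL) incubated with 25 μM testosterone and 1 mM NADPH in 100 mM potassium phosphate, pH 7.4, for eight minutes. 6-β-OH-testosterone measured by LC-MS/MS in MRM mode against an internal standard and quantified from a metabolite standard curve.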
On the technique in general: Liver microsomes are vesicles of endoplasmic reticulum, rich in cytochrome P450 enzymes.

For experiment [2], the target named is T1, CYP3A4. As to the kind of experiment: Determination of compound Kiapp against recombinant CYP3A4 enzyme (BFC fluorescent substrate). In short, it runs like this: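 Recombinant CYP3A4 (5.5 or 8 nM, with or without b5 depending on source) pre-incubated with inhibitor ≥30 min at room temperature in 100 mM sodium phosphate pH 7.0, 5 mM TCEP, 2% DMF. Reaction started with 200 uM NADPH and 5 uM BFC; initial fluorescence rates over 5 min fitted to Morrison tight-binding (non-partial) or Szedlacsek (partial) equations for Kiapp.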

In experiment [3] the target is T1, CYP3A4. The experiment can be described thus: Determination of IC50 against CYP3A4 by measurement of inhibition of midazolam metabolism (human liver microsomes, 1-hydroxymidazolam by LC-MS/MS). On the set-up: 0.1 mg/mL human liver microsomes. The conditions noted are these: 2 μM midazolam, 0.1 mg/mL human liver microsomes. In short, it runs like this: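 Human liver microsomes (0.1 mg/mL) incubated 8 min with 2 μM midazolam and 1 mM NADPH in 100 mM potassium phosphate, pH 7.4. 1-Hydroxymidazolam quantified by LC-MS/MS (MRM) as peak area ratio to internal standard against a metabolite standard curve.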

Setting [4] is: Baculo. enzyme preparation, read-out: Kiapp (BFC, Baculo.).
Where [5] appears, read: Super. enzyme preparation, read-out: Kiapp (BFC, Super.).

SMILES strings stand for the structures. Like-named read-outs stand apart in the source and are kept apart here.

T1 sequence (P08684 whole entry): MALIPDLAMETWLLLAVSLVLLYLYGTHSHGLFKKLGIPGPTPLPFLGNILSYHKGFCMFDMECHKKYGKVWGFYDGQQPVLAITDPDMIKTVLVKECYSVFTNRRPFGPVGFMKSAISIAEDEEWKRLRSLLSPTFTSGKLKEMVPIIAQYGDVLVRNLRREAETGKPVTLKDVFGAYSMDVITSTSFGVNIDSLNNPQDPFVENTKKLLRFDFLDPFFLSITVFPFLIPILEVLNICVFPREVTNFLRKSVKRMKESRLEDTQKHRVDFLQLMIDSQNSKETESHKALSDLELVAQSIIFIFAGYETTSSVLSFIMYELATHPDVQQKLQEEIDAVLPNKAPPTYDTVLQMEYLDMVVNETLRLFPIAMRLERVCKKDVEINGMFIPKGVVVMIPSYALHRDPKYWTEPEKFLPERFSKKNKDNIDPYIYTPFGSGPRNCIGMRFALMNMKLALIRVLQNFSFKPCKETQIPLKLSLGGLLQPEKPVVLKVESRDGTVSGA

By IC50 is commonly meant the midpoint of a concentration-inhibition curve. In the case of `COc1ccc(CNC(=O)c2ccccc2S(=O)(=O)Nc2cncc(OC)c2)cc1` [Example 373, N-(4-methoxybenzyl)-2-{[(5-methoxypyridin-3-yl)amino]sulfonyl}benzamide], the figures for the IC50 at CYP3A4 [1] and on CYP3A4 [3] were 49 nM and 37 nM, respectively. In addition, the Ki at CYP3A4 [2] (setting [4]) was 221 nM; at CYP3A4 [2] (setting [5]), 45 nM.

Regarding `COc1cncc(NS(=O)(=O)c2ccccc2C(=O)NC(C)(C)C)c1` [Example 374, N-(tert-butyl)-2-{[(5-methoxypyridin-3-yl)amino]sulfonyl}benzamide], the IC50 on CYP3A4 [1] amounted to 79 nM; on CYP3A4 [3], 29 nM. Moreover, the Ki on CYP3A4 [2] (setting [4]) was found to be 483 nM; on CYP3A4 [2] (setting [5]), 74.5 nM.

With `COc1cncc(NS(=O)(=O)c2ccccc2C(=O)NCC2CCCC2)c1` [Example 375, N-(cyclopentylmethyl)-2-{[(5-methoxypyridin-3-yl)amino]sulfonyl}benzamide], the results for the IC50 at CYP3A4 [1] and on CYP3A4 [3] were 42 nM and 22 nM, respectively. Moreover, the Ki on CYP3A4 [2] (setting [4]) came out at 142 nM; at CYP3A4 [2] (setting [5]), 31.6 nM.

Regarding `CCCCN(C)C(=O)c1ccccc1S(=O)(=O)Nc1cccnc1` [Example 376, N-butyl-N-methyl-2-[(pyridin-3-ylamino)sulfonyl]benzamide], the IC50 at CYP3A4 [1] worked out at 43 nM; at CYP3A4 [3], 27 nM. In addition, the Ki was found to be 117 nM on CYP3A4 [2] (setting [4]) and 73 nM on CYP3A4 [2] (setting [5]).

With `CCCCCNC(=O)c1ccccc1S(=O)(=O)Nc1cncc(OC)c1` [Example 377, 2-{[(5-methoxypyridin-3-yl)amino]sulfonyl}-N-pentylbenzamide], the IC50 at CYP3A4 [1] turned out to be 33 nM; at CYP3A4 [3], 21 nM. Moreover, the Ki on CYP3A4 [2] (setting [4]) came to 76.3 nM; on CYP3A4 [2] (setting [5]), 17.6 nM.

Turning to `COc1cncc(NS(=O)(=O)c2ccccc2C(=O)NCc2ccccc2F)c1` [Example 378, N-(2-fluorobenzyl)-2-{[(5-methoxypyridin-3-yl)amino]sulfonyl}benzamide], the IC50 on CYP3A4 [1] amounted to 14 nM; at CYP3A4 [3], 13 nM. In addition, the Ki was found to be 78 nM on CYP3A4 [2] (setting [4]) and 18.7 nM at CYP3A4 [2] (setting [5]).

`COc1cncc(NS(=O)(=O)c2ccccc2C(=O)NCCC(C)C)c1` [Example 379, 2-{[(5-methoxypyridin-3-yl)amino]sulfonyl}-N-(3-methylbutyl)benzamide]: the results for the IC50 on CYP3A4 [1] and on CYP3A4 [3] were 7 nM and 8 nM, respectively. In addition, the Ki came to 120 nM on CYP3A4 [2] (setting [4]) and 24.6 nM at CYP3A4 [2] (setting [5]).

With `COc1cncc(NS(=O)(=O)c2ccccc2C(=O)NCC(C)(C)C)c1` [Example 380, N-(2,2-dimethylpropyl)-2-{[(5-methoxypyridin-3-yl)amino]sulfonyl}benzamide], the IC50 at CYP3A4 [1] was 29 nM; on CYP3A4 [3] it was 21 nM. For the same compound, the figures for the Ki on CYP3A4 [2] (setting [4]) and on CYP3A4 [2] (setting [5]) were 215 nM and 60.7 nM, respectively.

Take `COc1cncc(NS(=O)(=O)c2ccccc2C(=O)NC(C)(C)c2ccccc2)c1` [Example 381, 2-{[(5-methoxypyridin-3-yl)amino]sulfonyl}-N-(1-methyl-1-phenylethyl)benzamide]: the IC50 on CYP3A4 [1] was 64 nM; at CYP3A4 [3] it was 30 nM. The Ki at CYP3A4 [2] (setting [4]) was determined as 52 nM; at CYP3A4 [2] (setting [5]), 2.79 nM.

Regarding `COC[C@H](C)NC(=O)c1ccccc1S(=O)(=O)Nc1cncc(OC)c1` [Example 382, N-[(1S)-2-methoxy-1-methylethyl]-2-{[(5-methoxypyridin-3-yl)amino]sulfonyl}benzamide], the IC50 at CYP3A4 [1] is 263 nM; at CYP3A4 [3], 68 nM. Besides, the Ki is 505 nM at CYP3A4 [2] (setting [4]) and 20.1 nM on CYP3A4 [2] (setting [5]).

For `COc1cncc(NS(=O)(=O)c2ccccc2C(=O)NCCc2ccncc2)c1` [Example 383, 2-{[(5-methoxypyridin-3-yl)amino]sulfonyl}-N-(2-pyridin-4-ylethyl)benzamide], the results for the IC50 at CYP3A4 [1] and at CYP3A4 [3] were 348 nM and 67 nM, respectively. Besides, the Ki at CYP3A4 [2] (setting [4]) is 912 nM; on CYP3A4 [2] (setting [5]) it was 31 nM.

Turning to `COc1cncc(NS(=O)(=O)c2ccccc2C(=O)NCCc2cccnc2)c1` [Example 384, 2-{[(5-methoxypyridin-3-yl)amino]sulfonyl}-N-(2-pyridin-3-ylethyl)benzamide], the IC50 at CYP3A4 [1] worked out at 178 nM; at CYP3A4 [3], 43 nM. The Ki came out at 560 nM at CYP3A4 [2] (setting [4]) and 19.2 nM on CYP3A4 [2] (setting [5]).

For the compound `COc1cncc(NS(=O)(=O)c2ccccc2C(=O)NCCN2CCCCC2)c1` [Example 385, 2-{[(5-methoxypyridin-3-yl)amino]sulfonyl}N-(2-piperidin-1-ylethyl)benzamide], the IC50 at CYP3A4 [1] and at CYP3A4 [3] was > 750 nM each time. For the same compound, the Ki at CYP3A4 [2] (setting [4]) is > 1000 nM; on CYP3A4 [2] (setting [5]), 216 nM.

For `COc1cncc(NS(=O)(=O)c2ccccc2C(=O)NCCN2CCCC2)c1` [Example 386, 2-{[(5-methoxypyridin-3-yl)amino]sulfonyl}-N-(2-pyrrolidin-1-ylethyl)benzamide], the IC50 at CYP3A4 [1] and at CYP3A4 [3] was > 750 nM throughout. Moreover, the Ki at CYP3A4 [2] (setting [4]) was > 1000 nM; on CYP3A4 [2] (setting [5]) it was 174 nM.

Regarding `COc1cncc(NS(=O)(=O)c2ccccc2C(=O)NCCC2CCCN2C)c1` (centres unmarked) [Example 387, 2-{[(5-methoxypyridin-3-yl)amino]sulfonyl}N[2-(1-methylpyrrolidin-2-yl)ethyl]benzamide], the IC50 on CYP3A4 [1] and at CYP3A4 [3] was > 750 nM each time. The figures for the Ki on CYP3A4 [2] (setting [4]) and at CYP3A4 [2] (setting [5]) were > 1000 nM and 224 nM, respectively.

For `COc1cncc(NS(=O)(=O)c2ccccc2C(=O)NCCc2ccccc2C)c1` [Example 388, 2-{[(5-methoxypyridin-3-yl)amino]sulfonyl}-N-[2-(2-methylphenyl)ethyl]benzamide], the IC50 worked out at 3 nM on CYP3A4 [1] and 9 nM at CYP3A4 [3]. In addition, the Ki at CYP3A4 [2] (setting [4]) is 16 nM; on CYP3A4 [2] (setting [5]), < 1 nM.

For the compound `COc1cncc(NS(=O)(=O)c2ccccc2C(=O)N2CCC(C)CC2)c1` [Example 389, N-(5-methoxypyridin-3-yl)-2-[(4-methylpiperidin-1-yl)carbonyl]benzenesulfonamide], the IC50 amounted to 57 nM at CYP3A4 [1] and 24 nM at CYP3A4 [3]. For the same compound, the Ki on CYP3A4 [2] (setting [4]) was 241 nM; at CYP3A4 [2] (setting [5]), 2.81 nM.

With `CCCN(CC1CC1)C(=O)c1ccccc1S(=O)(=O)Nc1cncc(OC)c1` [Example 390, N-(cyclopropylmethyl)-2-{[(5-methoxypyridin-3-yl)amino]sulfonyl}-N-propylbenzamide], the IC50 on CYP3A4 [1] was 70 nM; on CYP3A4 [3], 18 nM. Moreover, the results for the Ki on CYP3A4 [2] (setting [4]) and at CYP3A4 [2] (setting [5]) were 84.9 nM and 1.78 nM, respectively.

With `COc1cncc(NS(=O)(=O)c2ccccc2C(=O)N2CCCC(C)(C)C2)c1` [Example 391, 2-[(3,3-dimethylpiperidin-1-yl)carbonyl]-N-(5-methoxypyridin-3-yl)benzenesulfonamide], the figures for the IC50 on CYP3A4 [1] and on CYP3A4 [3] were 63 nM and 27 nM, respectively. Also, the Ki on CYP3A4 [2] (setting [4]) came to 317 nM; at CYP3A4 [2] (setting [5]), 6.26 nM.

For `O=C(c1ccccc1S(=O)(=O)Nc1cncc(Br)c1)N1CCCCC1` [Example 392, N-(5-bromopyridin-3-yl)-2-(piperidin-1-ylcarbonyl)benzenesulfonamide], the IC50 at CYP3A4 [1] amounted to 9 nM; on CYP3A4 [3] it was 65 nM. Moreover, the Ki at CYP3A4 [2] (setting [4]) is > 1000 nM; on CYP3A4 [2] (setting [5]), 320 nM.

The values are drawn from patent publication US7868026B2, “Therapeutic compounds” (Pfizer Inc., priority 2005, dated 2011).
